IC50 data for eight molecules are collected here from patent US20240043448A1, “Small Molecule Inhibitors of KRAS G12C Mutant” (Merck Sharp & Dohme LLC, priority 2019, published 2024).

Read-outs that look alike come from different tables or passages of the source.

In assay [1] the target is Biotinylated KRAS G12C protein (Homo sapiens (Human), UniProt P01116, C118S/C51S/C80L/G12C). The assay can be described thus: SOS-catalyzed nucleotide exchange assay (TR-FRET). In kind it is biochemical. Particulars: in vitro apparent potency; preincubation time of 60 minutes prior to addition of SOS. Put shortly: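 Biotinylated KRAS G12C preloaded with Bodipy-GDP and Tb-streptavidin, then incubated with compound (10-point, 3-fold series) for 60 min at RT. Exchange started with SOS and GTP for 60 min. TR-FRET 520/495 ratio normalised to DMSO and saturating-inhibitor controls; four-parameter fit.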
(Time-resolved FRET reads energy transfer from a long-lived donor to a nearby acceptor.)

The next assay relates to phospho-ERK. Kind of assay: Cellular phospho-ERK assay. Type of assay: cell-based. Conditions: NCI-H358 cells, 2 hour incubation, ratio of p-Erk vs total Erk, read-out: IC50 (nM) pERK (Cell). In outline:
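NCI-H358 cells seeded overnight, then exposed to compound dose-response titrations for 2 hours at 37° C. in RPMI. Lysates assayed by AlphaLISA SureFire Ultra multiplex for p-Erk and total Erk; ratio p-Erk/total Erk used as readout, IC50 from 4-parameter logistic fit.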

As for `C=CC(=O)N1[C@H](C)CN(c2nc(=O)n3c4nc(c(F)cc24)-c2c(F)cccc2OCCCCc2ccnc(C(C)C)c2-3)C[C@@H]1C` [Example 7, 2-[(3R,5S)-3,5-dimethyl-4-(prop-2-enoyl)piperazin-1-yl]-18,21-difluoro-6-(propan-2-yl)-10,11,12,13-tetrahydro-4H-1,19-ethenopyrido[4,3-f]pyrimido[1,6-h][1,8,10]benzoxadiazacyclotridecin-4-one], the half-maximal inhibitory concentration (IC50) (as a rule, the concentration at which inhibition is half-maximal) came to 6.9 nM in assay [1] and 34 nM in the assay with phospho-ERK.

For the molecule `C=CC(=O)N1CC(C)N(c2nc(=O)n3c4nc(c(F)cc24)-c2c(F)cccc2COCCc2ccnc(C(C)C)c2-3)CC1C` [Example 115, 2-[(2S,5R)-2,5-dimethyl-4-(prop-2-enoyl)piperazin-1-yl]-17,20-difluoro-6-(propan-2-yl)-10,11-dihydro-1,18-ethenopyrido[3,4-e]pyrimido[6,1-c][9,2,4]benzoxadiazacyclododecin-4(13H)-one], the half-maximal inhibitory concentration (IC50) is 237 nM in assay [1] and 1020 nM in the assay on phospho-ERK.

For “17,20-difluoro-6-(propan-2-yl)-2-[4-(prop- 2-enoyl)-2-(2,2,2-trifluoroethyl)piperazin- 1-yl]-11,12-dihydro-4H,10H-1,18- (ethanediylidene)pyrido[4,3- e]pyrimido[1,6-g][1,7,9] benzoxadiazacyclododecin-4-one [Example 101]”, the IC50 came to 29 nM in assay [1] and 137 nM in the assay on phospho-ERK.

Turning to `C=CC(=O)N1CCN(c2nc(=O)n3c4nc(c(F)cc24)-c2c(F)cccc2OCCCc2ccnc(C(C)C)c2-3)C(Cc2ccccc2)C1` (stereo not shown) [Example 100, 2-[2-benzyl-4-(prop-2-enoyl)piperazin-1-yl]-17,20-difluoro-6-(propan-2-yl)-11,12-dihydro-4H,10H-1,18-ethenopyrido[4,3-e]pyrimido[1,6-g][1,7,9]benzoxadiazacyclododecin-4-one], the IC50 in assay [1] is 25 nM; in the assay on phospho-ERK (Homo sapiens, NCI-H358, 2 h), 508 nM.

In the case of `C=CC(=O)N1CCN(c2nc(=O)n3c4nc(c(F)cc24)-c2c(F)cccc2OCCCc2ccnc(C(C)C)c2-3)C(C)(C)C1` [Example 102, 2-[2,2-dimethyl-4-(prop-2-enoyl)piperazin-1-yl]-17,20-difluoro-6-(propan-2-yl)-11,12-dihydro-4H,10H-1,18-ethenopyrido[4,3-e]pyrimido[1,6-g][1,7,9] benzoxadiazacyclododecin-4-one], the IC50 is 35 nM in assay [1] and 149 nM in the assay with phospho-ERK (Homo sapiens, NCI-H358, 2 h).

In the case of `C=CC(=O)N1C[C@H](C)N(c2nc(=O)n3c4nc(c(F)cc24)-c2c(F)cccc2OCCc2ccnc(C(C)C)c2-3)C[C@H]1C` [Example 96, 2-[(2S,5R)-2,5-dimethyl-4-(prop-2-enoyl)piperazin-1-yl]-16,19-difluoro-6-(propan-2-yl)-10,11-dihydro-4H-1,17-ethenopyrido[4,3-d]pyrimido[1,6-f][1,6,8]benzoxadiazacycloundecin-4-one], the IC50 in assay [1] worked out at 3.8 nM; in the assay on phospho-ERK (Homo sapiens, NCI-H358, 2 h), 32 nM.

Turning to `C=CC(=O)N1C[C@H](C)N(c2nc(=O)n3c4cc(c(F)cc24)-c2c(F)ccc(F)c2OCCOc2ccnc(C(C)C)c2-3)C[C@H]1C` [Example 93, 2-[(2S,5R)-2,5-dimethyl-4-(prop-2-enoyl)piperazin-1-yl]-14,17,20-trifluoro-6-(propan-2-yl)-11,12-dihydro-4H-1,18-(ethanediylidene)pyrido[4,3-e]pyrimido[1,6-g][1,4,7]benzodioxazacyclododecin-4-one], the IC50 in assay [1] was found to be 31 nM; in the assay with phospho-ERK (Homo sapiens, NCI-H358, 2 h), 572 nM.

On to `C=CC(=O)N1C[C@H](C)N(c2nc(=O)n3c4nc(c(Cl)cc24)-c2c(ccc(F)c2F)OCCCc2ncnc(C(C)C)c2-3)C[C@H]1C` [Example 74, 20-chloro-2-[(2S,5R)-2,5-dimethyl-4-(prop-2-enoyl)piperazin-1-yl]-16,17-difluoro-6-(propan-2-yl)-11,12-dihydro-4H,10H-1,18-ethenodipyrimido[4,5-e:1′,6′-g][1,7,9]benzoxadiazacyclododecin-4-one], for which the IC50 in assay [1] came out at 0.51 nM; in the assay with phospho-ERK (Homo sapiens, NCI-H358, 2 h), 3.6 nM.
